In patent US11136317B2, “NADPH oxidase 4 inhibitors” (ACTELION PHARMACEUTICALS LTD, priority 2015, dated 2021):

Each compound was assayed against T1, human NOX4 (Homo sapiens, UniProt Q9NPH5) (assay: Amplex Red activity assay (cellular H2O2 formation in hNOX4 T-REx-293 cells)). Details: tet-induced 24 h, extracellular H2O2 by Amplex Red, 60 min 25° C., geometric mean if determined several times.
T1 construct: The full-length human NOX4 (NM_016931.3) transcript was cloned; expressed in transfected cells
T1 sequence (Q9NPH5 1-578): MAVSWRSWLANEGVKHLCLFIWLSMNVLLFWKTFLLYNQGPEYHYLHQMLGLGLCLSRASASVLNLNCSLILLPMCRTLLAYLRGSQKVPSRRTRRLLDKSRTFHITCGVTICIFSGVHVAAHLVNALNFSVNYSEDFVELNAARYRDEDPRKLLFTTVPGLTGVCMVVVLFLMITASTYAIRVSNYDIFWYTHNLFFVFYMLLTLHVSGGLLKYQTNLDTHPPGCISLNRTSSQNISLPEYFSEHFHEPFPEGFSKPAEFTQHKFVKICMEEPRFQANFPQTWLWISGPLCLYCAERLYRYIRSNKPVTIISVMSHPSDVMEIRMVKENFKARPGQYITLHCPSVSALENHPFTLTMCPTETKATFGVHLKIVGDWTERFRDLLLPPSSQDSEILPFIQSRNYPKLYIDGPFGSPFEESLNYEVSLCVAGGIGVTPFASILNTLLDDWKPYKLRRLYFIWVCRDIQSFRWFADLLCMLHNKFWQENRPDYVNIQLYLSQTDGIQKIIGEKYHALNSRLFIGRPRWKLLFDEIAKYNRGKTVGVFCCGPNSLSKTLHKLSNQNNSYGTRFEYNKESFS
T1 sequence (P13498 1-195 partner): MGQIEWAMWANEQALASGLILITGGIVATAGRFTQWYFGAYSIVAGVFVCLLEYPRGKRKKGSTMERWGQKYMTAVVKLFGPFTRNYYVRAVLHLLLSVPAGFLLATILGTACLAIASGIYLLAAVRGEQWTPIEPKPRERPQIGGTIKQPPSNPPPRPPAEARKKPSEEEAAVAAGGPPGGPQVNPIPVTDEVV
Type: cell-based
Method in brief: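 Tet-induced (1 μg/mL, 24 h) HEK293 T-REx cells stably expressing full-length human NOX4, 20 000 cells/well, exposed to compounds (10 concentrations, 50 μM to 100 nM; 1.25% DMSO) for 60 min at 25°C. Extracellular H2O2 detected by Amplex Red resorufin fluorescence (ex 550/em 600 nm) versus vehicle; IC50 calculated.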

IC50	Structure (SMILES)
1330 nM	COCC1CCCN1c1nc2cc(NC(=O)c3ccc4c(c3)CCO4)ccc2o1 (centres unmarked) [Example 58, 2,3-Dihydro-benzofuran-5-carboxylic acid [2-(2-methoxymethyl-pyirolidin-1-yl)-benzooxazol-5-yl]-amide]
23900 nM	O=C(Nc1ccc2c(c1)CCO2)c1ccc2sc(N3CCS(=O)(=O)CC3)nc2c1 [Example 199, 2-(1,1-Dioxo-thiomorpholin-4-yl)-benzothiazole-5-carboxylic acid (2,3-dihydro-benzofuran-5-yl)-amide]
627 nM	O=C(Nc1ccc2oc(N3CCOCC3)nc2c1)c1ccc2c(c1)CCO2 [Example 5, 2,3-Dihydro-benzofuran-5-carboxylic acid (2-morpholin-4-yl-benzooxazol-5-yl)-amide]
913 nM	O=C(Nc1ccc2oc(N3CCN(C4COC4)CC3)nc2c1)c1ccc2c(c1)CCO2 [Example 53, 2,3-Dihydro-benzofuran-5-carboxylic acid [2-(4-oxetan-3-yl-piperazin-1-yl)-benzooxazol-5-yl]-amide]
764 nM	O=C(Nc1ccc2oc(N3CCCC34COC4)nc2c1)c1ccc2c(c1)OCCO2 [Example 165, 2,3-Dihydro-benzo[1,4]dioxine-6-carboxylic acid [2-(2-oxa-5-aza-spiro[3.4]oct-5-yl)-benzooxazol-5-yl]-amide]
729 nM	O=C(Nc1ccc2c(c1)CCO2)c1ccc2sc(N3CCC34CCOC4)nc2c1 (centres unmarked) [Example 202, 2-(6-Oxa-1-aza-spiro[3.4]oct-1-yl)-benzothiazole-5-carboxylic acid (2,3-dihydro-benzofuran-5-yl)-amide]
1540 nM	O=C(Nc1ccc2oc(N3CCC34CCOC4)nc2c1)c1ccc2c(c1)CCCO2 (centres unmarked) [Example 144, Chroman-6-carboxylic acid [2-(6-oxa-1-aza-spiro[3.4]oct-1-yl)-benzooxazol-5-yl]-amide]
9530 nM	O=C(Nc1ccc2oc(N3CC(F)(F)C3)nc2c1)c1ccc2c(c1)OCO2 [Example 121, Benzo[1,3]dioxole-5-carboxylic acid [2-(3,3-difluoro-azetidin-1-yl)-benzooxazol-5-yl]-amide]
681 nM	CN(c1nc2cc(NC(=O)c3ccc4c(c3)CCO4)ccc2o1)C1COC1 [Example 57, 2,3-Dihydro-benzofuran-5-carboxylic acid [2-(methyl-oxetan-3-yl-amino)-benzooxazol-5-yl]-amide]
657 nM	O=C(Nc1ccc2oc(N3CC(O)C3)nc2c1)c1ccc2c(c1)CCO2 [Example 47, 2,3-Dihydro-benzofuran-5-carboxylic acid [2-(3-hydroxy-azetidin-1-yl)-benzooxazol-5-yl]-amide]
1080 nM	O=C(Nc1ccc2oc(N3CCC4(CC3)COC4)nc2c1)c1ccc2c(c1)OCO2 [Example 132, Benzo[1,3]dioxole-5-carboxylic acid [2-(2-oxa-7-aza-spiro[3.5]non-7-yl)-benzooxazol-5-yl]-amide]
1930 nM	CN(C)C1CN(c2nc3cc(NC(=O)c4ccc5c(c4)CCO5)ccc3o2)C1 [Example 69, 2,3-Dihydro-benzofuran-5-carboxylic acid [2-(3-dimethylamino-azetidin-1-yl)-benzooxazol-5-yl]-amide]
573 nM	O=C(Nc1ccc2oc(N3CCC(F)(F)C3)nc2c1)c1ccc2c(c1)CCO2 [Example 9, 2,3-Dihydro-benzofuran-5-carboxylic acid [2-(3,3-difluoro-pyrrolidin-1-yl)-benzooxazol-5-yl]-amide]
1840 nM	O=C(Nc1ccc2c(c1)OCCO2)c1ccc2sc(N3CCC34COC4)nc2c1 [Example 203, 2-(6-Oxa-1-aza-spiro[3.3]hept-1-yl)-benzothiazole-5-carboxylic acid (2,3-dihydro-benzo[1,4]dioxin-6-yl)-amide]
2440 nM	CN1CCOc2ccc(C(=O)Nc3ccc4oc(N5CCC56CCOC6)nc4c3)cc21 (centres unmarked) [Example 181, 4-Methyl-3,4-dihydro-2H-benzo[1,4]oxazine-6-carboxylic acid [2-(6-oxa-1-aza-spiro[3.4]oct-1-yl)-benzooxazol-5-yl]-amide]
2890 nM	O=C(Nc1ccc2oc(N3CC(N4CCS(=O)(=O)CC4)C3)nc2c1)c1ccc2c(c1)CCO2 [Example 19, 2,3-Dihydro-benzofuran-5-carboxylic acid {2-[3-(1,1-dioxo-1l6-thiomoipholin-4-yl)-azetidin-1-yl]-benzooxazol-5-yl}-amide]

IC50	Structure (SMILES)
906 nM	CN(CC1COC1)c1nc2cc(NC(=O)c3ccc4c(c3)CCO4)ccc2o1 [Example 56, 2,3-Dihydro-benzofuran-5-carboxylic acid [2-(methyl-oxetan-3-ylmethyl-amino)-benzooxazol-5-yl]-amide]
1390 nM	CN1CCN(c2nc3cc(NC(=O)c4ccc5c(c4)OCCO5)ccc3o2)CC1 [Example 174, 2,3-Dihydro-benzo[1,4]dioxine-6-carboxylic acid [2-(4-methyl-piperazin-1-yl)-benzooxazol-5-yl]-amide]
421 nM	CN1CCN(c2nc3cc(C(=O)Nc4ccc5c(c4)CCO5)ccc3o2)CC1 [Example 75, 2-(4-Methyl-piperazin-1-yl)-benzooxazole-5-carboxylic acid (2,3-dihydro-benzofuran-5-yl)-amide]
1670 nM	CN(C)CC1CCN(c2nc3cc(NC(=O)c4ccc5c(c4)CCO5)ccc3o2)C1 (centres unmarked) [Example 60, 2,3-Dihydro-benzofuran-5-carboxylic acid [2-(3-dimethylaminomethyl-pyrrolidin-1-yl)-benzooxazol-5-yl]-amide]
2450 nM	O=C(Nc1ccc2sc(N3CCCCC3)nc2c1)c1ccc2c(c1)CCO2 [Example 81, 2,3-Dihydro-benzofuran-5-carboxylic acid (2-piperidin-1-yl-benzothiazol-5-yl)-amide]
1490 nM	O=C(Nc1ccc2oc(N3CCCCC34COC4)nc2c1)c1ccc2c(c1)CCO2 [Example 26, 2,3-Dihydro-benzofuran-5-carboxylic acid [2-(2-oxa-5-aza-spiro[3.5]non-5-yl)-benzooxazol-5-yl]-amide]
2170 nM	O=C(Nc1ccc2sc(N3CCC[C@@H](O)C3)nc2c1)c1ccc2c(c1)CCO2 [Example 116, 2,3-Dihydro-benzofuran-5-carboxylic acid [2-((R)-3-hydroxy-piperidin-1-yl)-benzothiazol-5-yl]-amide]
2710 nM	O=C(Nc1ccc2c(c1)OCCO2)c1ccc2sc(N3CCC34CCOC4)nc2c1 (centres unmarked) [Example 208, 2-(6-Oxa-1-aza-spiro[3.4]oct-1-yl)-benzothiazole-5-carboxylic acid (2,3-dihydro-benzo[1,4]dioxin-6-yl)-amide]
5360 nM	CN(C)CCN(C)c1nc2cc(NC(=O)c3ccc4c(c3)CCO4)ccc2o1 [Example 13, 2,3-Dihydro-benzofuran-5-carboxylic acid {2-[(2-dimethylamino-ethyl)-methyl-amino]-benzooxazol-5-yl}-amide; compound with formic acid]
2110 nM	O=C(Nc1ccc2oc(N3CC(O)C3)nc2c1)c1ccc2c(c1)OCO2 [Example 122, Benzo[1,3]dioxole-5-carboxylic acid [2-(3-hydroxy-azetidin-1-yl)-benzooxazol-5-yl]-amide]
804 nM	O=C(Nc1ccc2oc(N3CCCC4(CCO4)C3)nc2c1)c1ccc2c(c1)CCO2 (centres unmarked) [Example 25, 2,3-Dihydro-benzofuran-5-carboxylic acid [2-(1-oxa-6-aza-spiro[3.5]non-6-yl)-benzooxazol-5-yl]-amide]
1470 nM	O=C(Nc1ccc2oc(N3CC4(CCCOC4)C3)nc2c1)c1ccc2c(c1)CCO2 [Example 23, 2,3-Dihydro-benzofuran-5-carboxylic acid [2-(6-oxa-2-aza-spiro[3.5]non-2-yl)-benzooxazol-5-yl]-amide]
1480 nM	O=C(Nc1ccc2oc(N3CC(O)C3)nc2c1)c1ccc2c(c1)OCCO2 [Example 159, 2,3-Dihydro-benzo[1,4]dioxine-6-carboxylic acid [2-(3-hydroxy-azetidin-1-yl)-benzooxazol-5-yl]-amide]
1350 nM	CCN(CC)c1nc2cc(NC(=O)c3ccc4c(c3)OCCO4)ccc2o1 [Example 175, 2,3-Dihydro-benzo[1,4]dioxine-6-carboxylic acid (2-diethylamino-benzooxazol-5-yl)-amide]
3410 nM	O=C(Nc1ccc2sc(N3CCC4(COC4)C3)nc2c1)c1ccc2c(c1)CCO2 [Example 115, 2,3-Dihydro-benzofuran-5-carboxylic acid [2-(2-oxa-6-aza-spiro[3.4]oct-6-yl)-benzothiazol-5-yl]-amide]
1400 nM	CC1(O)CN(C2CN(c3nc4cc(NC(=O)c5ccc6c(c5)CCO6)ccc4o3)C2)C1 [Example 20, 2,3-Dihydro-benzofuran-5-carboxylic acid [2-(3-hydroxy-3-methyl-[1,3′]biazetidinyl-1′-yl)-benzooxazol-5-yl]-amide]
